{"source": "paper PMC3701070", "about": "(PLoS ONE, 2013)", "assay_in_all_cases": "Cell growth assay", "format_in_all_cases": "cell-based", "key": {"OV-90": {"system": "OV-90", "details": "Homo sapiens, 72 h; OV-90, BRAF(del486-490), RAS WT, 3-day; read-out: gIC50", "procedure": "(§1) Growth was measured with CellTiter-Glo® (Promega) reagent per the manufacturer’s protocol, using a PerkinElmer EnVision™ reader at t = 0 and 72 h. IC50 values for cell growth inhibition (gIC50) were determined.\n(§2) (PDF) Click here for additional data file."}, "Colo320DM": {"system": "Colo320DM", "details": "Homo sapiens, COLO 320DM, 72 h, RAF WT, RAS WT, 3-day, read-out: gIC50", "procedure": "as §1, §2"}, "NCI-H661": {"system": "NCI-H661", "details": "Homo sapiens, 72 h; NCI-H661, RAF WT, RAS WT, 3-day; read-out: gIC50", "procedure": "as §1, §2"}, "HN5": {"system": "HN5", "details": "Homo sapiens, 72 h; HN5, RAF WT, RAS WT, 3-day; read-out: gIC50", "procedure": "as §1, §2"}, "NCI-H2052": {"system": "NCI-H2052", "details": "Homo sapiens, 72 h; NCI-H2052, RAF WT, RAS WT, 3-day; read-out: gIC50", "procedure": "as §1, §2"}, "NCI-H630": {"system": "NCI-H630", "details": "Homo sapiens, 72 h; NCI-H630, RAF WT, RAS WT, 3-day; read-out: gIC50", "procedure": "as §1, §2"}, "HPAF-II": {"system": "HPAF-II", "details": "Homo sapiens, 72 h, RAF WT, RAS WT, 3-day, read-out: gIC50", "procedure": "as §1, §2"}, "NCI-H358": {"system": "NCI-H358", "details": "Homo sapiens, 72 h; NCI-H358, RAF WT, RAS WT, 3-day; read-out: gIC50", "procedure": "as §1, §2"}, "JRT3-T35": {"system": "JRT3-T35", "details": "Homo sapiens, J-RT3-T3-5, 72 h; JRT3-T35, RAF WT, RAS WT, 3-day; read-out: gIC50", "procedure": "as §1, §2"}, "SCC-25": {"system": "SCC-25", "details": "Homo sapiens, 72 h; SCC-25, RAF WT, RAS WT, 3-day; read-out: gIC50", "procedure": "as §1, §2"}, "NCI-H2228": {"system": "NCI-H2228", "details": "Homo sapiens, 72 h; NCI-H2228, RAF WT, RAS WT, 3-day; read-out: gIC50", "procedure": "as §1, §2"}, "UACC-62": {"system": "UACC-62", "details": "Homo sapiens, 72 h; UACC-62, BRAF(V600E), RAS WT, 3-day; read-out: gIC50", "procedure": "as §1, §2"}, "HCC-2998": {"system": "HCC-2998", "details": "Homo sapiens, 72 h; HCC-2998, RAF WT, KRAS(A146T), 3-day; read-out: gIC50", "procedure": "as §1, §2"}, "ST486": {"system": "ST486", "details": "Homo sapiens, 72 h; ST486, RAF WT, RAS WT, 3-day; read-out: gIC50", "procedure": "as §1, §2"}, "JM1": {"system": "JM1", "details": "Homo sapiens, 72 h; JM1, RAF WT, RAS WT, 3-day; read-out: gIC50", "procedure": "as §1, §2"}, "C32TG": {"system": "C32TG", "details": "Homo sapiens, 72 h, BRAF(V600E), RAS WT, 3-day, read-out: gIC50", "procedure": "as §1, §2"}, "SH-4": {"system": "SH-4", "details": "Homo sapiens, 72 h; SH-4, BRAF(V600E), RAS WT, 3-day; read-out: gIC50", "procedure": "as §1, §2"}, "SW1088": {"system": "SW1088", "details": "Homo sapiens, 72 h; SW1088, RAF WT, RAS WT, 3-day; read-out: gIC50", "procedure": "as §1, §2"}, "Hep3B": {"system": "Hep3B", "details": "Homo sapiens, 72 h, RAF WT, RAS WT, 3-day, read-out: gIC50", "procedure": "as §1, §2"}, "TE381.T": {"system": "TE381.T", "details": "Homo sapiens, TE 381.T, 72 h, RAF WT, RAS WT, 3-day, read-out: gIC50", "procedure": "as §1, §2"}, "NCI-H747": {"system": "NCI-H747", "details": "Homo sapiens, 72 h; NCI-H747, RAF WT, KRAS(G13D), 3-day; read-out: gIC50", "procedure": "as §1, §2"}, "CEM/C1": {"system": "CEM/C1", "details": "Homo sapiens, 72 h; CEM/C1, RAF WT, RAS WT, 3-day; read-out: gIC50", "procedure": "as §1, §2"}, "RD": {"system": "RD", "details": "Homo sapiens, 72 h, RAF WT, RAS WT, 3-day, read-out: gIC50", "procedure": "as §1, §2"}, "SK-N-DZ(note)": {"system": "SK-N-DZ(note)", "details": "Homo sapiens, 72 h, RAF WT, RAS WT, 3-day, read-out: gIC50", "procedure": "as §1, §2"}, "HOS": {"system": "HOS", "details": "Homo sapiens, 72 h, RAF WT, RAS WT, 3-day, read-out: gIC50", "procedure": "as §1, §2"}, "NCI-H209": {"system": "NCI-H209", "details": "Homo sapiens, 72 h; NCI-H209, RAF WT, RAS WT, 3-day; read-out: gIC50", "procedure": "as §1, §2"}, "SNU-1": {"system": "SNU-1", "details": "Homo sapiens, SNU1, 72 h; SNU-1, RAF WT, RAS WT, 3-day; read-out: gIC50", "procedure": "as §1, §2"}, "NCI-H526": {"system": "NCI-H526", "details": "Homo sapiens, 72 h; NCI-H526, RAF WT, RAS WT, 3-day; read-out: gIC50", "procedure": "as §1, §2"}, "LS1034": {"system": "LS1034", "details": "Homo sapiens, LS-1034, 72 h; LS1034, RAF WT, KRAS(A146T), 3-day; read-out: gIC50", "procedure": "as §1, §2"}, "RD-ES": {"system": "RD-ES", "details": "Homo sapiens, 72 h, RAF WT, RAS WT, 3-day, read-out: gIC50", "procedure": "as §1, §2"}, "NCI-H1563": {"system": "NCI-H1563", "details": "Homo sapiens, 72 h; NCI-H1563, RAF WT, RAS WT, 3-day; read-out: gIC50", "procedure": "as §1, §2"}, "OVCAR-5": {"system": "OVCAR-5", "details": "Homo sapiens, 72 h; OVCAR-5, RAF WT, RAS WT, 3-day; read-out: gIC50", "procedure": "as §1, §2"}}}
{"smiles": "CC(C)(C)c1nc(-c2cccc(NS(=O)(=O)c3c(F)cccc3F)c2F)c(-c2ccnc(N)n2)s1", "note": "[dabrafenib]", "values": [{"measurement": "IC50", "setting": "OV-90", "result": 0.029, "unit": "µM"}, {"measurement": "IC50", "setting": "Colo320DM", "result": "> 10", "unit": "µM"}, {"measurement": "IC50", "setting": "NCI-H661", "result": "> 10", "unit": "µM"}, {"measurement": "IC50", "setting": "HN5", "result": "> 10", "unit": "µM"}, {"measurement": "IC50", "setting": "NCI-H2052", "result": "> 10", "unit": "µM"}, {"measurement": "IC50", "setting": "NCI-H630", "result": "> 10", "unit": "µM"}, {"measurement": "IC50", "setting": "HPAF-II", "result": "> 10", "unit": "µM"}, {"measurement": "IC50", "setting": "NCI-H358", "result": "> 10", "unit": "µM"}, {"measurement": "IC50", "setting": "JRT3-T35", "result": 0.295, "unit": "µM"}, {"measurement": "IC50", "setting": "SCC-25", "result": "> 10", "unit": "µM"}, {"measurement": "IC50", "setting": "NCI-H2228", "result": "> 10", "unit": "µM"}, {"measurement": "IC50", "setting": "UACC-62", "result": 0.001, "unit": "µM"}, {"measurement": "IC50", "setting": "HCC-2998", "result": "> 10", "unit": "µM"}, {"measurement": "IC50", "setting": "ST486", "result": "> 10", "unit": "µM"}, {"measurement": "IC50", "setting": "JM1", "result": "> 10", "unit": "µM"}, {"measurement": "IC50", "setting": "C32TG", "result": 0.001, "unit": "µM"}, {"measurement": "IC50", "setting": "SH-4", "result": 0.008, "unit": "µM"}, {"measurement": "IC50", "setting": "SW1088", "result": "> 10", "unit": "µM"}, {"measurement": "IC50", "setting": "Hep3B", "result": "> 10", "unit": "µM"}, {"measurement": "IC50", "setting": "TE381.T", "result": "> 10", "unit": "µM"}, {"measurement": "IC50", "setting": "NCI-H747", "result": "> 10", "unit": "µM"}, {"measurement": "IC50", "setting": "CEM/C1", "result": 1.77, "unit": "µM"}, {"measurement": "IC50", "setting": "RD", "result": "> 10", "unit": "µM"}, {"measurement": "IC50", "setting": "SK-N-DZ(note)", "result": "> 10", "unit": "µM"}, {"measurement": "IC50", "setting": "HOS", "result": "> 10", "unit": "µM"}, {"measurement": "IC50", "setting": "NCI-H209", "result": "> 10", "unit": "µM"}, {"measurement": "IC50", "setting": "SNU-1", "result": 1.5, "unit": "µM"}, {"measurement": "IC50", "setting": "NCI-H526", "result": "> 10", "unit": "µM"}, {"measurement": "IC50", "setting": "LS1034", "result": "> 10", "unit": "µM"}, {"measurement": "IC50", "setting": "RD-ES", "result": "> 10", "unit": "µM"}, {"measurement": "IC50", "setting": "NCI-H1563", "result": "> 10", "unit": "µM"}, {"measurement": "IC50", "setting": "OVCAR-5", "result": "> 10", "unit": "µM"}]}
